From patent US10611765B2, “Pyrrolopyrimidine derivatives as Mps1/TTK kinase inhibitors” (Ohio State Innovation Foundation, priority 2014, dated 2020) come the findings set out here.

A word on the IC50: it is the concentration that inhibits the measured activity by half.

One data set relates to Cal-51 cells. Nature of the data set: Centriole assembly / centrosome amplification assay, Cal-51. It counts as cell-based. The method, then: (§1) For these cell biology assays, cells were plated onto poly-L-lysine coated coverslips in 24 well dishes using the medium and growth conditions described above, but using medium containing phenol red. At 24 hours after plating, compounds (or the equivalent amount of DMSO) were added to individual wells at various concentrations. Cells were incubated for 24 hours at 37° C. BrdU was added during the last 4 hours of the incubation, after which cells were fixed in pre-chilled methanol at −20 OC for 10 minutes, stained with centrosome markers, then treated with acid to denature chromosomal DNA prior to staining for BrdU. To assess centriole biogenesis, centriole number was determined for triplicate samples in cells that had entered S-phase as judged by incorporation of BrdU. Primary antibodies used were mouse anti-γTubulin (pericentriolar material) and rabbit anti-Centrin 2 (centrioles). Secondary antibodies used were Alexa594-conjugated donkey anti-mouse and Alexa488-conjugated donkey anti-rabbit.
For centriole assembly assays, Cal-51 and MDA-MB-468 cells were treated with candidate compounds prior to a short pulse of BrdU. Because the centriole pair is replicated at the G1/S transition, compounds that block centrosome assembly will lead to an increased number of BrdU-positive cells with two centrioles. In addition, like many breast cancer cells Cal-51 and MDA-MB-468 are capable of centrosome amplification, and compounds that block this centrosome amplification should reduce the number of BrdU-positive cells with more than four centrioles.

Another data set concerns BT-549. The experiment in a line: MTS anti-proliferative assay, BT-549. It counts as cell-based. The following applies: Homo sapiens, 168 h, BT-549, TNBC, basal B, treatment for 7 days. The method, then:
(§2) The anti-proliferative effects and IC50 values of the compounds in the BC cell line panel were determined by MTS assay.
(§3) The cells, except Sk-Br-3, AU565 and BT-474 were maintained in a mixture of Dulbecco's modified Eagle's medium and Ham's F12 medium (1:1) (DMEM/F12) without phenol red supplemented with 5% fetal bovine serum (FBS) and 1× antibiotic-antimycotic (100 U/mL penicillin G sodium, 100 μg/mL streptomycin sulfate and 0.25 μg/mL amphotericin B) and were plated separately in flasks in a humidified incubator (5% CO2: 95% air, 37° C.). The media used for Sk-Br-3, AU565 and BT-474 cell lines was described in (1) Brueggemeier et al., J. Steroid Biochem. Mol. Biol., 2005; 95:129-136; and (2) Diaz-Cruz et al., J. Clin. Endocrinol. Metab., 2005; 90:2563-2570. The media were changed every 2-days. When the cells grew to about 80% confluence, cells were washed twice with calcium- and magnesium-free phosphate-buffered saline (PBS, pH 7.4), and then trypsinized with 0.05% trypsin-5.3 mm EDTA. The trypsinization was stopped by addition of culture medium with 5% FBS. After centrifugation, the dissociated cells were resuspended in the same medium and subcultured into 75-cm^2 culture flasks at a ratio of 1:5 flasks.
(§4) The BC cells were seeded at the density of 1,000 cells per well (100 μL) into 96 well plate in DMEM/F-12 (1:1), supplemented with 5% (v/v) FCS and incubated overnight at 37° C. Test compounds are solubilized in dimethyl sulfoxide (DMSO), diluted in cell culture medium to a range of final assay concentrations of 1 nM to 10 μM, added to cells and incubated for 7 days at 37° C. The medium including the test compound are refreshed at days 3 and 5. The MTS assay are carried out by using the CellTiter 96® AQueous One Solution Cell Proliferation Assay kit following the manufacturer's instruction.
For orientation: Tetrazolium dyes change colour on reduction, which living cells bring about.

In a further data set the test system is CAL-51. The experiment in a line: MTS anti-proliferative assay, CAL-51. It counts as cell-based. As to conditions: Homo sapiens, 168 h, CAL-51, TNBC, basal, treatment for 7 days. Here is the method:
as §2, §3, §4

Another data set relates to BT-474. The experiment in a line: MTS anti-proliferative assay, BT-474. It counts as cell-based. The following applies: Homo sapiens, 168 h, BT-474, luminal B, treatment for 7 days. Here is the method: as §2, §3, §4
The next data set has as its system MDA-MB-453. Nature of the data set: MTS anti-proliferative assay, MDA-MB-453. The class given is cell-based. As to conditions: Homo sapiens, 168 h, MDA-MB-453, luminal A, treatment for 7 days. Here is the method: as §2
(§5) The media were changed every 2-days. When the cells grew to about 80% confluence, cells were washed twice with calcium- and magnesium-free phosphate-buffered saline (PBS, pH 7.4), and then trypsinized with 0.05% trypsin-5.3 mm EDTA. The trypsinization was stopped by addition of culture medium with 5% FBS.
as §4

The subject of a further data set is CAMA-1. Nature of the data set: MTS anti-proliferative assay, CAMA-1. The class given is cell-based. The following applies: Homo sapiens, 168 h, CAMA-1, luminal, treatment for 7 days. Here is the method: as §2, §3, §4
The subject of the next data set is MDA-MB-468 cells. The experiment in a line: Centriole assembly / centrosome amplification assay, MDA-MB-468. The class given is cell-based. As to conditions: compared to IN-1, AZ3146 and Compound 5. The method, then:
as §1
For centriole assembly assays, Cal-51 and MDA-MB-468 cells were treated with candidate compounds prior to a short pulse of BrdU. Because the centriole pair is replicated at the G1/S transition, compounds that block centrosome assembly will lead to an increased number of BrdU-positive cells with two centrioles. […]

A further data set deals with T47D. The experiment in a line: MTS anti-proliferative assay, T47D. It counts as cell-based. As to conditions: Homo sapiens, 168 h, luminal, treatment for 7 days. Here is the method:
as §2, §3, §4

Data set [1] has as its system normal breast epithelial cells. Nature of the data set: Primary cultures of normal breast epithelial cells. The class given is cell-based. The following applies: up to 20 μM. Here is the method:
No notable cytotoxicity was observed after 24 hours of treatment at concentrations as high as 10 μM.

For another data set, the system named is MDA-MB-436. The experiment in a line: MTS anti-proliferative assay, MDA-MB-436. It counts as cell-based. As to conditions: Homo sapiens, 168 h, MDA-MB-436, TNBC, basal B, treatment for 7 days. Here is the method:
as §2, §5, §4

A further data set has as its system Cal-51 cells (tumor). Nature of the data set: Tumor progression in athymic nude mice. It counts as in vivo. The following applies: Cal-51 tumors, i.p. injection in DMSO, five-week study. Here is the method: Compound 13 in DMSO was administered to the test mice by i.p. injection. Cal-51 cells were injected to induce tumor growth. At the end of the five-week study, the mice were sacrificed, and the tumors were measured, dissected and weighed (FIGS. 6 and 7).

Another data set concerns the target JNK1 (Homo sapiens, UniProt P45983). The following applies: read-out: IC50 JNK1; kinase profiling. Here is the method: Briefly, the inhibition potency to Mps1 kinase activity was determined by measurement of radioactive phosphotransfer to the specific substrate, Cetn2. The autophosphorylation of Mps1 was also measured using the same method without adding Cetn2 in the kinase assay reaction mixture. […] Mps1 activity was measured using 0.25 ng of recombinant GST-Mps1 protein in 50 mM TrisCl pH 7.5, 0.5 mM DTT, 10 mM MgCl2, 300 μM recombinant Cetn2 and 3 μM ^32P-γ-ATP. […] ATP was added to initiate the kinase assay, incubated at 30° C. for 30 min and five-fold volume of […] was added to quench the reaction. The whole reaction was immobilized on Immobilon-P^SQ PVDF membrane (Millipore) using a dot blotter connected to vacuum line. Each well was washed three times with 300 μL of PBS. The membrane was further washed by soaking in PBS, dried, and exposed overnight to a Phosphor Screen. The image was acquired by the Storm imaging system (Amersham). The density analyses were performed by using Image-J program, and kinetic constants were calculated by GraphPad Prism 5 software. Commercial kinase profiling assays were performed by Reaction Biology Corp., Malvern, Pa.

JNK1, sequence (P45983 whole entry): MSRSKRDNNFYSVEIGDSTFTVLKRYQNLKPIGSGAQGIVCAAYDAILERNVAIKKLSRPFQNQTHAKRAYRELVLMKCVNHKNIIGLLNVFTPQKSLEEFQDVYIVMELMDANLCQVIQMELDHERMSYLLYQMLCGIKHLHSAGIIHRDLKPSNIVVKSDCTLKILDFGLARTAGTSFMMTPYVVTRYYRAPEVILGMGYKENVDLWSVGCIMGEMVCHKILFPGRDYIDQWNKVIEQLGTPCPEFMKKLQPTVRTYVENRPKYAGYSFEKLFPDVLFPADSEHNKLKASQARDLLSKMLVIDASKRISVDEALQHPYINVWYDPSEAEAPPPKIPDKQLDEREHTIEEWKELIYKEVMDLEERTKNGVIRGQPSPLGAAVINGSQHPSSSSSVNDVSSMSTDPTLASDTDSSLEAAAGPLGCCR

In the case of `COc1cc(N2CCC(O)CC2)ccc1Nc1nc(Nc2ccccc2S(=O)(=O)C(C)C)c2cc[nH]c2n1` [Compound 1, 1-(4-((4-((2-(isopropylsulfonyl)phenyl)amino)-7H-pyrrolo[2,3-d]pyrimidin-2-yl)amino)-3-methoxyphenyl)piperidin-4-ol], the “percentage of cells with more than four centrioles (centrosome amplification)” value with Cal-51 cells (Cal-51) is listed as “dose-dependent reduction”. Moreover, the “percentage of BrdU positive cells that have just two centrioles (centriole assembly)” value in the data set with Cal-51 cells (Cal-51, continued investigations) is reported as “dose-dependent increase”. Moreover, the IC50 in the data set with BT-549 was 810 nM; in the data set on CAL-51, 230 nM; in the data set on BT-474, greater than 10000 nM; in the data set on MDA-MB-453 it was 820 nM; in the data set on CAMA-1, 360 nM; with T47D it was greater than 10 µM. Further, the IC50 in the data set with MDA-MB-436 was determined as 900 nM. For the same compound, the “percentage of BrdU-positive cells that have just two centrioles” value in the data set on MDA-MB-468 cells was “increases”. In addition, the “percentage of cells with more than four centrioles” value in the data set with MDA-MB-468 cells is recorded as “decreases”. In addition, the “inhibition of normal breast epithelial cells” value in data set [1] is recorded as “no inhibition or incomplete dose-response curves”.
For `COc1cc(N2CCOCC2)ccc1Nc1nc(NC2CCCCC2)c2cc[nH]c2n1` [Compound 13, N4-cyclohexyl-N2-(2-methoxy-4-morpholinophenyl)-7H-pyrrolo[2,3-d]pyrimidine-2,4-diamine], in the data set on Cal-51 cells (tumor), the tumor progression entry is “slowed the tumor progression”. For the same compound, the half-maximal inhibitory concentration (IC50) was 450 nM in the data set on CAL-51; 50 nM with BT-474; 1100 nM in the data set with CAMA-1; greater than 10 µM in the data set on T47D; 1670 nM at JNK1. Moreover, the “inhibition of normal breast epithelial cells” value in [1] was “no inhibition or incomplete dose-response curves”.
